# Experimental data as given in patent publication US11992499B2, “Quinoline derivatives for use in the treatment of inflammation diseases” (ABIVAX, priority 2018, dated 2024).
# “Also recorded” adds a separate entry of the source. Read-outs that look alike come from different tables or passages of the source.
# What was measured:
# [1] = tested on: STAM model of non-alcoholic steatohepatitis; assay: STAM model of NASH: plasma ALT; assay type: in vivo, mice; conditions: for Plasma ALT (mean ± SD): n = 8
# Protocol: NASH was induced in 48 male mice by a single subcutaneous injection of 200 μg streptozotocin (STZ, Sigma-Aldrich, USA) solution 2 days after birth and feeding with high fat diet (HFD, 57 kcal % fat, Cat #HFD32, CLEA Japan, Inc., Japan) after 4 weeks of age. Compound A was administered at 3 dose levels of 10, 20 and 40 mg/kg once daily from 6 to 9 weeks of age. Compound B was administered at a dose of 40 mg/kg once daily from 6 to 9 weeks of age. Telmisartan was administered at a dose of 10 mg/kg once daily from 6 to 9 weeks of age. For plasma biochemistry, non-fasting blood was collected in polypropylene tubes with anticoagulant (Novo-Heparin, Mochida Pharmaceutical Co. Ltd., Japan) and centrifuged at 1,000×g for 15 minutes at 4° C. The supernatant was collected and stored at −80° C. until use. Plasma ALT was measured by FUJI DRI-CHEM 7000 (Fujifilm, Japan).
# [2] = tested on: STAM model of non-alcoholic steatohepatitis; assay: STAM model of NASH: Sirius red staining, fibrosis area; assay type: in vivo, mice; conditions: for Sirius red-positive area (fibrosis area, mean ± SD): n = 8
# Protocol: (§1) NASH was induced in 48 male mice by a single subcutaneous injection of 200 μg streptozotocin (STZ, Sigma-Aldrich, USA) solution 2 days after birth and feeding with high fat diet (HFD, 57 kcal % fat, Cat #HFD32, CLEA Japan, Inc., Japan) after 4 weeks of age. Compound A was administered at 3 dose levels of 10, 20 and 40 mg/kg once daily from 6 to 9 weeks of age. Compound B was administered at a dose of 40 mg/kg once daily from 6 to 9 weeks of age. Telmisartan was administered at a dose of 10 mg/kg once daily from 6 to 9 weeks of age. For HE staining, sections were cut from paraffin blocks of liver tissue prefixed in Bouin's solution and stained with Lillie-Mayer's Hematoxylin (Muto Pure Chemicals Co., Ltd., Japan) and eosin solution (FUJIFILM Wako Pure Chemical Corporation). NAFLD Activity score (NAS) was calculated according to the criteria of Kleiner (Kleiner D E. et al., Hepatology, 2005; 41:1313). To visualize collagen deposition, Bouin's fixed liver sections were stained using picro-Sirius red solution (Waldeck, Germany). For quantitative analysis of fibrosis area, bright field images of Sirius red-stained sections were captured around the central vein using a digital camera (DFC295; Leica, Germany) at 200-fold magnification, and the positive areas in 5 fields/section were measured using ImageJ software (National Institute of Health, USA).
# [3] = tested on: STAM model of non-alcoholic steatohepatitis; assay: STAM model of NASH: liver triglyceride content; assay type: in vivo, mice; conditions: for Liver triglyceride (mean ± SD): n = 8
# Protocol: (§2) NASH was induced in 48 male mice by a single subcutaneous injection of 200 μg streptozotocin (STZ, Sigma-Aldrich, USA) solution 2 days after birth and feeding with high fat diet (HFD, 57 kcal % fat, Cat #HFD32, CLEA Japan, Inc., Japan) after 4 weeks of age.
# (§3) Compound A was administered at 3 dose levels of 10, 20 and 40 mg/kg once daily from 6 to 9 weeks of age. Compound B was administered at a dose of 40 mg/kg once daily from 6 to 9 weeks of age. Telmisartan was administered at a dose of 10 mg/kg once daily from 6 to 9 weeks of age.
# Liver total lipid-extracts were obtained by Folch's method (Folch J. et al., J. Biol. Chem. 1957; 226: 497). Liver samples were homogenized in chloroform-methanol (2:1, v/v) and incubated overnight at room temperature. After washing with chloroform-methanol-water (8:4:3, v/v/v), the extracts were evaporated to dryness, and dissolved in isopropanol. Liver triglyceride content was measured by Triglyceride E-test (FUJIFILM Wako Pure Chemical Corporation, Japan).
# [4] = tested on: STAM model of non-alcoholic steatohepatitis; assay: STAM model of NASH: Alpha-SMA immunostaining; assay type: in vivo, mice; conditions: for Alpha-SMA-positive area (mean ± SD): n = 8
# Protocol: NASH was induced in 48 male mice by a single subcutaneous injection of 200 μg streptozotocin (STZ, Sigma-Aldrich, USA) solution 2 days after birth and feeding with high fat diet (HFD, 57 kcal % fat, Cat #HFD32, CLEA Japan, Inc., Japan) after 4 weeks of age. Compound A was administered at 3 dose levels of 10, 20 and 40 mg/kg once daily from 6 to 9 weeks of age. Compound B was administered at a dose of 40 mg/kg once daily from 6 to 9 weeks of age. Telmisartan was administered at a dose of 10 mg/kg once daily from 6 to 9 weeks of age. […] (Table 9 herein after)
# [5] = tested on: STAM model of non-alcoholic steatohepatitis; assay type: in vivo; conditions: for Liver weight (mean ± SD) / Liver-to-body weight ratio (mean ± SD): n = 8
# From the text: To prepare dosing solution, Compound A and B were weighed and suspended in Vehicle which was composed of 20% of Vehicle-A1 and 80% of Vehicle-A2. Vehicle-A1 was composed of 0.5% (w/v) Carboxymethyl cellulose (CMC) 400-800 centipoises in water for injection+2.5% (w/v) Tween 80. Vehicle-A2 was composed of 0.5% (w/v) Carboxymethyl cellulose (CMC) 400-800 centipoises in water for injection. Telmisartan (Micardis®) was purchased from Boehringer Ingelheim GmbH (Germany) and dissolved in pure water.
# as §2
# Compound A and B, and Telmisartan were administered orally in a volume of 10 mL/kg.
# as §3
# C57BL/6 mice (14-day-pregnant female) were obtained from Japan SLC, Inc. (Japan). All animals used in the study were housed and cared for in accordance with the Japanese Pharmacological Society Guidelines for Animal Use.
# Group 1: Vehicle Eight NASH mice were orally administered vehicle [20% of Vehicle-A1 and 80% of Vehicle-A2] in a volume of 10 mL/kg once daily from 6 to 9 weeks of age.
# Eight NASH mice were orally administered vehicle supplemented with Compound A at a dose of 10 mg/kg once daily from 6 to 9 weeks of age.
# Eight NASH mice were orally administered vehicle supplemented with Compound A at a dose of 20 mg/kg once daily from 6 to 9 weeks of age.
# Eight NASH mice were orally administered vehicle supplemented with Compound A at a dose of 40 mg/kg once daily from 6 to 9 weeks of age.
# Eight NASH mice were orally administered vehicle supplemented with Compound B at a dose of 40 mg/kg once daily from 6 to 9 weeks of age.
# Eight NASH mice were orally administered pure water supplemented with Telmisartan at a dose of 10 mg/kg once daily from 6 to 9 weeks of age.
# The viability, clinical signs and behavior were monitored daily. Body weight was recorded before the treatment. […] The animals were sacrificed at 9 weeks of age by exsanguination through direct cardiac puncture under isoflurane anesthesia (Pfizer Inc.).
# [6] = tested on: STAM model of non-alcoholic steatohepatitis; assay: STAM model of NASH: HE staining and NAFLD Activity score; assay type: in vivo, mice; set-up: key to NAFLD Activity score (mean ± SD): NAFLD Activity score per Kleiner et al. 2005 criteria
# Protocol: as §1
# [7] = tested on: STAM model of non-alcoholic steatohepatitis; assay: STAM model of NASH: F4/80 immunostaining; assay type: in vivo, mice; conditions: for F4/80-positive area (mean ± SD): n = 8
# Protocol: as §2, §3
# [8] = 10 mg/kg PO QD (Compound A low, Telmisartan groups)
# [9] = 10 mg/kg PO QD, 6-9 wks of age (Compound A low, Telmisartan groups)
# [10] = 10 mg/kg PO QD (Telmisartan group)
# [11] = 10 mg/kg PO QD, 6-9 wks of age (Compound A low, Telmisartan groups), n = 8
# [12] = summary statement, dose not stated
# [13] = 40 mg/kg PO QD (Compound A high, Compound B groups)
# [14] = 40 mg/kg PO QD, 6-9 wks of age (Compound A high, Compound B groups)
# [15] = 40 mg/kg PO QD (Compound B group)
# [16] = 40 mg/kg PO QD, 6-9 wks of age (Compound A high, Compound B groups), n = 8
smiles,measurement,setting,value
"CCCc1nc2c(C)cc(-c3nc4ccccc4n3C)cc2n1Cc1ccc(-c2ccccc2C(=O)O)cc1 [Telmisartan, reference compound]",Plasma ALT level compared with the Vehicle group,[1]; [8],no significant difference
same,Plasma ALT (mean ± SD),[1]; [9],56 ± 14 U/L
same,"Sirius red-positive area (fibrosis area, mean ± SD)",[2]; [9],0.70 ± 0.13%
same,Liver triglyceride content compared with the Vehicle group,[3]; [10],tended to decrease; also recorded: decreasing trend
same,Liver triglyceride (mean ± SD),[3]; [9],41.5 ± 16.9 mg/g liver
same,Alpha-SMA-positive area compared with the Vehicle group,[4]; [10],tended to decrease
same,Alpha-SMA-positive area (mean ± SD),[4]; [9],0.83 ± 0.26%
same,Mean liver weight compared with the Vehicle group,[5]; [8],significant decrease
same,Mean liver-to-body weight ratio compared with the Vehicle group,[5]; [8],tended to decrease
same,Liver weight (mean ± SD),[5]; [9],1115 ± 78 mg
same,Liver-to-body weight ratio (mean ± SD),[5]; [9],6.5 ± 0.4%
same,NAS compared with the Vehicle group,[6]; [8],significant decrease
same,"Hepatocyte ballooning score 0 (None), number of mice",[6]; [11],7
same,"Hepatocyte ballooning score 1 (Few balloon cells), number of mice",[6]; [11],1
same,"Lobular inflammation score 2 (2-4 foci/200×), number of mice",[6]; [11],4
same,"Lobular inflammation score 3 (>4 foci/200×), number of mice",[6]; [11],4
same,NAFLD Activity score (mean ± SD),[6]; [11],2.8 ± 0.7
same,"Steatosis score 0 (<5%), number of mice",[6]; [11],7
same,"Steatosis score 1 (5-33%), number of mice",[6]; [11],1
same,F4/80-positive area (mean ± SD),[7]; [9],3.03 ± 0.95%
O=C(O)[C@H]1O[C@@H](N(c2ccc(OC(F)(F)F)cc2)c2ccc3cccc(Cl)c3n2)[C@H](O)[C@@H](O)[C@@H]1O [drawing 253],NAS compared with the Vehicle group,[6]; [12],decreasing trend
O=C(O)[C@H]1O[C@@H](N(c2ccc(OC(F)(F)F)cc2)c2ccc3cccc(Cl)c3n2)[C@H](O)[C@@H](O)[C@@H]1O [Compound B],Plasma ALT level compared with the Vehicle group,[1]; [13],tended to increase; also recorded: increasing trends
same,Plasma ALT (mean ± SD),[1]; [14],72 ± 24 U/L
same,Fibrosis area (Sirius red-positive area) compared with the Vehicle group,[2]; [15],tended to increase; also recorded: increasing trends
same,"Sirius red-positive area (fibrosis area, mean ± SD)",[2]; [14],0.94 ± 0.23%
same,Liver triglyceride content compared with the Vehicle group,[3]; [15],tended to increase; also recorded: increasing trends
same,Liver triglyceride (mean ± SD),[3]; [14],82.9 ± 32.6 mg/g liver
same,Alpha-SMA-positive area (mean ± SD),[4]; [14],1.17 ± 0.79%
same,Mean liver weight compared with the Vehicle group,[5]; [13],tended to increase
same,Mean liver-to-body weight ratio compared with the Vehicle group,[5]; [13],tended to increase
same,Liver weight (mean ± SD),[5]; [14],1606 ± 227 mg
same,Liver-to-body weight ratio (mean ± SD),[5]; [14],8.1 ± 1.1%
same,NAS compared with the Vehicle group,[6]; [13],tended to decrease; also recorded: decreasing trend
same,"Hepatocyte ballooning score 0 (None), number of mice",[6]; [16],5
same,"Hepatocyte ballooning score 1 (Few balloon cells), number of mice",[6]; [16],2
same,"Hepatocyte ballooning score 2 (Many cells/prominent ballooning), number of mice",[6]; [16],1
same,"Lobular inflammation score 2 (2-4 foci/200×), number of mice",[6]; [16],3
same,"Lobular inflammation score 3 (>4 foci/200×), number of mice",[6]; [16],5
same,NAFLD Activity score (mean ± SD),[6]; [16],3.6 ± 1.2
same,"Steatosis score 0 (<5%), number of mice",[6]; [16],4
same,"Steatosis score 1 (5-33%), number of mice",[6]; [16],4
same,Overall effect in this NASH model,[6]; conclusion of the study,potential anti-NAS effect
same,NAS compared with the Vehicle group,[6]; [12],decreasing trends
same,F4/80-positive area compared with the Vehicle group,[7]; [13],tended to decrease
same,F4/80-positive area (mean ± SD),[7]; [14],1.90 ± 0.89%
